How the values were obtained:
AMPA receptors = test: binding affinity for the AMPA receptors (Honore et al.); details: Table 1, AMPA
[1] = molecular target: kainate site (non-NMDA receptor); test: binding affinity for the kainate site (non-NMDA receptor) (London and Coyle); details: Table 1, KA

Compound	IC50 (AMPA receptors) [µM]	IC50 KA [1] [µM]
CCc1c(Br)cc2[nH]c(=O)c(=O)[nH]c2c1CN(C)CC(=O)O [Compound 2, [(7-Bromo-6-ethyl-2,3-dioxo-1,2,3,4-tetrahydro-quinoxalin-5-ylmethyl)-methyl-amino]-acetic acid]	2.35	6.72
CCOC(=O)CN(C)Cc1c(CC)c([N+](=O)[O-])cc2[nH]c(=O)c(=O)[nH]c12 [Compound 3, [(6-Ethyl-7-nitro-2,3-dioxo-1,2,3,4-tetrahydro-quinoxalin-5-ylmethyl)-methyl-amino]-acetic acid ethyl ester]	0.128	3.48
CCc1ccc2[nH]c(=O)c(=O)[nH]c2c1CN(C)CC(=O)O [Compound 4, [(6-Ethyl-2,3-dioxo-1,2,3,4-tetrahydro-quinoxalin-5ylmethyl)-methyl-amino]-acetic acid]	3.92	17.05
C=Cc1c(Br)cc2[nH]c(=O)c(=O)[nH]c2c1CN(C)CC(=O)O [Compound 1, [(7-Bromo-2,3-dioxo-6-vinyl-1,2,3,4-tetrahydro-quinoxalin-5-ylmethyl)-methyl-amino]-acetic acid]	1.76	4.68
